Data from patent US12642805B2, “Use of oxygenated cholesterol sulfates for treating at least one of insulin resistance, diabetes, and prediabetes” (Medicis Pharmaceutical Corporation, priority 2020, dated 2026).
Like-named read-outs stand apart in the source and are kept apart here.

Experiments:
[1] = test system: Huh-7 cells; experiment: whole genome bisulfite sequencing (WGBS), 5mCpG demethylation in promoter regions; type: cell-based, human
Method: (§1) Each sample, 2 μg, was sent to EpigenDx, Inc. (Hopkinton, MA) for analysis of global methylation bisulfite sequencing. The same samples, 6 μg, were sent to Novogene Co., Ltd (Tianjin, China) for analysis of whole genome bisulfite sequencing (WGBS). Total RNA was isolated using the Promega SV total RNA isolation system (Madison, WI) with DNase treatment. Each sample, 2 μg, was used for the first-strand cDNA synthesis as recommended by the manufacturer (Invitrogen, Carlsbad, CA). Real-time RT-PCR was performed using SYBR Green as the indicator on ABI 7500 Fast Real-Time PCR System (Applied Biosystems, Foster City, CA). Amplifications of β-actin or GAPDH were used as internal controls. Relative messenger RNA (mRNA) expression was quantified with the comparative cycle threshold (Ct) method using the primer set shown in Table 1.1 and was expressed as 2^−ΔΔCt.
Each sample, […] of genomic DNA spiked with 26 ng lambda DNA, was fragmented by sonication to 200-300 bp with Covaris S220, followed by end repair and adenylation. Cytosine-methylated barcodes were ligated to sonicated DNA per the manufacturer's instructions. These DNA fragments were treated twice with bisulfite using EZ DNA Methylation-Gold™ Kit (Zymo Research) before the resulting single-strand DNA fragments were PCR amplified using KAPA HiFi Hot Start Uracil and Ready Mix (2×). Library concentration was quantified by Qubit® 2.0 Flurometer (Life Technologies, CA, USA) and quantitative PCR, and the insert size was assayed on an Agilent Bioanalyzer 2100 system.
The library preparations were sequenced on an Illumina Hiseq 2500/4000 or Novaseq platform and 125 bp/150 bp paired-end reads were generated. Image analysis and base calling were performed with Illumina CASAVA pipeline. Trimmomatic (Trimmomatic-0.36) software was used for quality control. Bismark software (version 0.16.3; Krueger F, 2011) was used to perform alignments of bisulfite-treated reads to a reference genome (−X 700-dovetail). DSS software (23) was used to identify differentially methylated regions (DMRs). KOBAS software was used to test the statistical enrichment of DMR related genes in the Kyoto Encyclopedia of Genes and Genomes (KEGG) pathways.
Each sample (6 μg) was used for analysis of the whole genome bisulfite sequencing (WGBS).

[2] = test system: Huh-7 cells; experiment: real-time RT-PCR gene expression; type: cell-based, human; settings: HG 72 h; 25HC3S 6.25-50 μM, 1-8 hours
Method: as §1, with “FIGS. 3A-3D. Expression of key genes related to signaling pathways. […] Key Genes and their targeting genes expression were determined by RT-PCR analysis. […] Each” for “Each”, “[…],” for “EpigenDx,”, “Each sample, 2 μg, was used for the first-strand cDNA synthesis as recommended by the manufacturer (Invitrogen, Carlsbad, CA).” left out, “2^-ΔΔCt.” for “2^−ΔΔCt.”

[3] = Phase 1b 4-week oral dosing study in NASH patients: pharmacokinetics; type: in vivo, human; settings: for AUC(0-t) / Cmax / half-life / Tmax: both sexes, human, plasma, oral; for AUC(0-t): read-out: AUC(0-T), mean (standard deviation); for Cmax: read-out: Cmax, mean (standard deviation); for half-life: read-out: T1/2, mean (standard deviation) (converted); for Tmax: read-out: Tmax, mean (standard deviation)
Excerpt: A total of 63 patients completed the study with 21 patients per dose group (completion of MRI-PDFF measurement). […] Subjects provided written informed consent to participate in the study • 2. Males or females subjects 18 years or older, at the time of signing informed consent • 3. BMI 20-45 kg/m^2 • 4. […] Value of Fibroscan®≥7 kPa • OR • b. MRE≥2.75 kPa • Clinical diagnosis of NASH was defined in this clinical trial as the existence of one or more of the following risk factors for NASH, namely: • a. Type 2 diabetes or elevated fasting blood sugar • b. Abdominal obesity • c. Elevated lipid levels, especially elevated levels of serum triglycerides • d. Hypertension, or • e. Low levels of HDL cholesterol • 5. For serum transaminases, ALT concentration for all patients at the time of screening was >1 and <5 times upper limit of normal (ULN) of the central lab in the absence of another cause of liver disease. If a patient had lab records in the past 6 months, ALT concentrations were <20 U/L female and <30 U/L male. AST concentration for all patients at the time of screening was <5× ULN • 6. […] Platelet counts≥120,000/mm^3 • 8. Female subjects were eligible for the study if they met the following criteria: • Are not pregnant or nursing • Women of child-bearing potential (defined as females who are not surgically sterile or who are not over the age of 52 and amenorrheic for at least 12 months) must utilize appropriate birth control throughout the study duration. Acceptable methods that may be used are abstinence, birth control pills (“The Pill”) or patch, diaphragm, IUD (coil), vaginal ring, condom, surgical sterilization or progestin implant or injection, or sexual activity limited to a sterile (e.g., vasectomized) male partner • 9. Male participants agreed to consistently and correctly use a condom in combination with one of the above methods of birth control from enrolment to 30 days after the last dose of study medication • 10. Participants were able to comply with dosing and able to complete the study schedule of assessments

[4] = metabolite profiling of plasma, urine, feces after intravenous dose; settings: rats 10 mg/kg intravenous
Method: Samples were profiled using high performance liquid chromatography with radiodetection and metabolic characterization was performed using mass spectrometry and tandem mass spectrometry analysis.

CL/F, mean (standard deviation) ([3]; 50 mg QD (n = 22)): 150.6 (51.5) L/h
CL/F, mean (standard deviation) ([3]; 150 mg QD (n = 21)): 176.6 (80.5) L/h
CL/F, mean (standard deviation) ([3]; 300 mg BID (n = 21)): 166.2 (60.4) L/h
AUC(0-t) ([3]; 50 mg QD (n = 22)): 340 ng·h/mL
Cmax ([3]; 50 mg QD (n = 22)): 79.1 ng/mL
half-life ([3]; 50 mg QD (n = 22)): 2.7 h
Tmax ([3]; 50 mg QD (n = 22)): 2.4 h
AUC(0-t) ([3]; 150 mg QD (n = 21)): 1040 ng·h/mL
Cmax ([3]; 150 mg QD (n = 21)): 274 ng/mL
half-life ([3]; 150 mg QD (n = 21)): 2.7 h
Tmax ([3]; 150 mg QD (n = 21)): 2 h
AUC(0-t) ([3]; 300 mg BID (n = 21)): 2140 ng·h/mL
Cmax ([3]; 300 mg BID (n = 21)): 430 ng/mL
half-life ([3]; 300 mg BID (n = 21)): 2.4 h
Tmax ([3]; 300 mg BID (n = 21)): 2.3 h
% of dose in feces ([4]; pools 0 to 48 hours): 2%
share of the exposure (AUC) to 25HC3S related radioactivity in plasma ([4]; up to 1 hour post-dose): approximately 54%
Compound: C[C@H](CCCC(C)(C)O)[C@H]1CC[C@H]2[C@@H]3CC=C4C[C@@H](OS(=O)(=O)O)CC[C@]4(C)[C@H]3CC[C@]12C [25HC3S, 25-hydroxycholesterol-3-sulfate]
genes demethylated in promoter regions, Calcium signaling pathway ([1]; HG 72 h, then 25HC3S 4 h): 19 genes
genes demethylated in promoter regions, MAPK signaling pathway ([1]; HG 72 h, then 25HC3S 4 h): 23 genes
genes demethylated in promoter regions, cAMP signaling pathway ([1]; HG 72 h, then 25HC3S 4 h): 28 genes
genes with 5mCpG converted to CpG in promoter regions ([1]; high glucose model): 1074 genes
CREB5 expression, increase [2]: up to 20 fold
DUSP8 expression, increase [2]: 5 fold
FAS expression, decrease [2]: ~90%
HMGR expression, decrease [2]: ~90%
PGC1A expression, increase [2]: 12 fold
